Measurements taken from US6592890B1, “Conveyance of anti-infective activity to wound dressings” (OxiBio, Inc., priority 1999, dated 2003).

Tested on: C. albicans

## II [elemental iodine]
  elemental iodine concentrations required to affect microbial killing: < 0.01%
